The source of these data is patent publication US10906924B2, “Modulators of indoleamine 2,3-dioxygenase” (GLAXOSMITHKLINE INTELLECTUAL PROPERTY DEVELOPMENT LIMITED, priority 2017, dated 2021).

Counter-ions that a name gives are not always drawn.

indoleamine 2,3-dioxygenase (IDO1), sequence (P14902 whole entry): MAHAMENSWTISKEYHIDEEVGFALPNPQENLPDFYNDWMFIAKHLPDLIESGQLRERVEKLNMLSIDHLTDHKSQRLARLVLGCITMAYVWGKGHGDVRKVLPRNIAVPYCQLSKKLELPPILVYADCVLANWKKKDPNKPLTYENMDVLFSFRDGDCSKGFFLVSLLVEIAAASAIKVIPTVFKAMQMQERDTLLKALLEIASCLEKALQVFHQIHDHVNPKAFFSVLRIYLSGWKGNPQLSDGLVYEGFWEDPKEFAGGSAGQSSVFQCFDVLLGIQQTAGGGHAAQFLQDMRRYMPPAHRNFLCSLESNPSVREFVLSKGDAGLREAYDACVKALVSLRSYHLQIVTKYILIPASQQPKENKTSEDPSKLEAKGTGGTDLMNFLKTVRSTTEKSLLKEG

This test has as its target indoleamine 2,3-dioxygenase (IDO1) (Homo sapiens, UniProt P14902). The test can be described thus: PBMC IDO1 assay (kynurenine by mass spectrometry). The note with it: human PBMC stimulated with IFN-γ and LPS, 2 days incubation, kynurenine detected by mass spectrometry; read-out: IDO1 PBMC pIC50 (converted). Format: cell-based.
Consider `COC(=O)N1CCC2(CC1)C[C@H](NC(=O)c1cccc3cn[nH]c13)c1ccccc1O2` [Example 54, methyl (S)-4-(1H-indazole-7-carboxamido)spiro[chromane-2,4′-piperidine]-1′-carboxylate], for which the IC50 was 0.02 µM. In the case of `CCOC(=O)N1CCC2(CC1)C[C@H](NC(=O)c1cccc3cn(COP(=O)(O)O)nc13)c1ccccc1O2` [Example 55, 2-amino-2-(hydroxymethyl)propane-1,3-diol hemi((S)-(7-((1′-(ethoxycarbonyl)spiro[chroman-2,4′-piperidin]-4-yl)carbamoyl)-2H-indazol-2-yl)methyl phosphate)] it was 0.126 µM; in that of `CCOC(=O)N1CCC2(CC1)C[C@H](NC(=O)c1cccc3cn(COP(=O)(O)O)nc13)c1nc(OC)ccc1O2` [Example 56, ethyl (S)-6′-methoxy-4′-(2-((phosphonooxy)methyl)-2H-indazole-7-carboxamido)-3′,4′-dihydrospiro[piperidine-4,2′-pyrano[3,2-b]pyridine]-1-carboxylate, bis 2-amino-2-(hydroxymethyl)-1,3-propanediol salt], 0.0794 µM; in that of `COC(=O)N1CCC2(CC1)C[C@H](NC(=O)c1cccc3cn[nH]c13)c1nc(OC)ccc1O2` [Example 57, methyl (S)-4′-(1H-indazole-7-carboxamido)-6′-methoxy-3′,4′-dihydrospiro[piperidine-4,2′-pyrano[3,2-b]pyridine]-1-carboxylate], 0.01 µM. For `CCOC(=O)N1CCC2(CC1)C[C@H](NC(=O)c1cccc3cn(COP(=O)(O)O)nc13)c1cc(Br)ncc1O2` [Example 58, (S)-ethyl 6′-bromo-4′-(2-((phosphonooxy)methyl)-2H-indazole-7-carboxamido)-3′,4′-dihydrospiro[piperidine-4,2′-pyrano[2,3-c]pyridine]-1-carboxylate], the IC50 is 0.501 µM.

In the case of `CCOC(=O)N1CCC2(CC1)C[C@H](NC(=O)c1cccc3c(CO)n[nH]c13)c1cc(Br)ccc1O2` [Example 59, ethyl (S)-6-bromo-4-(3-(hydroxymethyl)-1H-indazole-7-carboxamido) spiro[chromane-2,4′-piperidine]-1′-carboxylate], the IC50 was 0.000794 µM. In the case of `CCOC(=O)N1CCC2(CC1)C[C@H](NC(=O)c1cccc3c(COC(=O)CCC(=O)O)[nH]nc13)c1cc(Br)ccc1O2` [Example 60, (S)-4-((7-((6-bromo-1′-(ethoxycarbonyl)spiro[chromane-2,4′-piperidin]-4-yl)carbamoyl)-1H-indazol-3-yl)methoxy)-4-oxobutanoic acid] it was 0.00126 µM; in that of `CCOC(=O)N1CCC2(CC1)C[C@H](NC(=O)c1cccc3c(COC(C)=O)[nH]nc13)c1cc(Br)ccc1O2` [Example 61, ethyl (S)-4-(3-(acetoxymethyl)-1H-indazole-7-carboxamido)-6-bromo spiro[chromane-2,4′-piperidine]-1′-carboxylate], 0.00126 µM.
